We go through one molecule from patent EP4134440B1, “MALVA SYLVESTRIS FERMENTATION PRODUCT AND USE THEREOF” (Kabushiki Kaisha Yakult Honsha, priority 2020, dated 2021).

Converted amounts (≈) assume the structure as drawn.

Assay [1] relates to B16 mouse melanoma cells (B16-F1). Nature of the assay: Melanin production suppression test: intracellular protein level (BCA method). The assay is classed as cell-based. Conditions: 72 h, three days in 0.5 mM theophylline-containing medium, concentration as evaporation residue concentration, * = estimated value. Here is the method: (§1) As cells, B16 mouse melanoma cells (B16-F1) were used. Cells passaged 5-10 times, counting from the time of purchase, were used in the test. As medium, DMEM containing 5 or 10% FBS was used.
A quantity of 500 µL of DMEM medium containing 5% FBS was placed in a 24-well plate, and B16 melanoma cells were seeded 1.4 × 10^4 cells/well (7.5 × 10^4 cells/cm^2), then cultured for 24 hours at 37°C under 5% CO2. Thereafter, the medium was replaced with 1 mL of 0.5 mM theophylline-containing medium containing a test sample, and the cells were cultured for another three days.
As the test sample, a fermentation supernatant by each lactic acid bacterium or unfermented Malva sylvestris extract was added to make a blend ratio (volume ratio) of 0.5%, 1%, 2%, or 5% in the medium, taking the undiluted sample solution as 100%. As a control, RO water was added to the medium in the same blend ratios instead of the fermentation supernatant by each lactic acid bacterium or unfermented Malva sylvestris extract. […]
The cell lysate was diluted ten-fold by ultrapure water (milli-Q water) and assayed by the BCA method (Pierce BCA Protein assay kit) using BSA as the reference protein, and the intracellular protein level relative to the control was determined using the following formula. […]

Assay [2] shares this test system. Nature of the assay: Melanin production suppression test: intracellular melanin production level. Type of assay: cell-based. Conditions: 72 h, three days in 0.5 mM theophylline-containing medium, concentration expressed as evaporation residue concentration. Here is the method:
as §1
A quantity of 500 µL of DMEM medium containing 5% FBS was placed in a 24-well plate, and B16 melanoma cells were seeded 1.4 × 10^4 cells/well ([…]), then cultured for 24 hours at 37°C under 5% CO2. Thereafter, the medium was replaced with 1 mL of 0.5 mM theophylline-containing medium containing a test sample, and the cells were cultured for another three days. […]
After culture was completed, the cells were washed twice with PBS(-) and fixed with 99.5% ethanol. […] After allowing to cool, the entire amount of cell lysate was transferred to a 96-well plate, and the 405 nm absorbance was measured. The intracellular melanin production level per culture well was determined from a calibration curve that used synthetic melanin, and the intracellular melanin production level relative to the control was determined by the following formula. […]
The melanin production-suppressing activity of the obtained fermentation supernatants or unfermented plant extract was measured using B16 melanoma cells in the same way as in Test Example 2. […]

As a reminder, the IC50 is the concentration at which inhibition is half-maximal.

Regarding `OC[C@H]1O[C@@H](Oc2ccc(O)cc2)[C@H](O)[C@@H](O)[C@@H]1O` [compound 15, Arbutin], the values for the IC50 in assay [1] and in assay [2] were 1200 µg/mL (≈ 4410 µM) and 340 µg/mL (≈ 1250 µM), respectively.
